According to patent publication US20110256115A1, “HYDROSOLUBLE [6)O-ALPHA-D-GLCP-(1->]N-6-O-BETA-D-GLCP-(1->-PHENOLIC DERIVATIVES WITH DERMOCOSMETIC, NUTRITIONAL AND THERAPEUTIC APPLICATIONS, AND COMPOSITIONS CONTAINING SAID WATER SOLUBLE COMPOUNDS” (Libragen, priority 2008, published 2011):
Several values for one entry are separate records, joined by “and”; a condition that tells them apart may be missing. Identical values can stand only once.

Experiment: Compared solubility in water
Type: physicochemical
Settings: for B = solubility in water of O-β-D-Glcp-(1→-phenolic compound) / solubility: water saturated solution; for B = solubility in water of O-β-D-Glcp-(1→-phenolic compound) / solubility / A = solubility in water of [6)-O-α-D-Glcp-(1→]1-6-O-β-D-Glcp-(1→-phenolic compound: pH 4.0 to 5.0, no buffer added, 25° C.; for solubility: thermodynamic from solid, read-out: B = solubility in water of O-β-D-Glcp-(1→-phenolic compound); for % of solubility increase = (A − B)/B × 100: versus corresponding O-β-D-Glcp-(1→-phenolic compound); for A = solubility in water of [6)-O-α-D-Glcp-(1→]1-6-O-β-D-Glcp-(1→-phenolic compound: minimal solubility from concentrated syrup
From the text: The phenolic compounds derivatives of the present invention have an improved solubility in water of at least 50% to 5000% as compared to the corresponding 0-β-D-Glcp-(14)-phenolic compound in the same physiological conditions, more preferably at least 50%, 100%, 200%, 400%, 800%, 1000%, 2000%, 3000%, 4000% or 5000%. Solubility of a phenolic compound derivative can be estimated by preparing a saturated water solution of said phenolic compound derivative. Excess solid form of phenolic compound derivative is eliminated by high speed centrifugation and concentration of compound A in the supernatant is estimated by HPLC using appropriate references (see above §‘Prepation of derivative’ for HPLC conditions example). Solubility difference is calculated with formula: […]
For this purpose, these [6)-O-α-D-Glcp-(1→]n-6-O-β-D-Glcp-(1→-phenolic derivatives have been prepared as described in example 1, and concentrated as described in EP2007/055815. The resulting concentrated syrup obtained after purification of these [6)-O-α-D-Glcp-(1→]1-6-O-β-D-Glcp-(1→-phenolic derivatives has been diluted and analyzed by HPLC to estimate the content of soluble [6)-O-α-D-Glcp-(1→]1-6-O-β-D-Glcp-(1→-phenolic derivatives.
In parallel, an excess amount of each corresponding β-D-Glcp-(1→-phenolic derivatives has been diluted in water to enable the preparation of water saturated solutions of these compounds. After high speed centrifugation to remove the excess of solid material, the supernatant of these saturated solutions has been analyzed by HPLC to estimate the content of soluble O-β-D-Glcp-(1→-phenolic derivatives.
Nota: One should notice that solubility of the [6)-O-α-D-Glcp-(1→]1-6-O-(3-D-Glcp-(1→-phenolic derivatives is considered as a minimal solubility as concentration of the initial syrups have not been tested.

Molecule	solubility	% of solubility increase = (A − B)/B × 100 (In g/L)	% of solubility increase = (A − B)/B × 100 (In mM)	A = solubility in water of [6)-O-α-D-Glcp-(1→]1-6-O-β-D-Glcp-(1→-phenolic compound	B = solubility in water of O-β-D-Glcp-(1→-phenolic compound)
COc1ccc(/C=C/c2cc(O)cc(O[C@@H]3O[C@H](CO)[C@@H](O)[C@H](O)[C@H]3O)c2)cc1 [Deoxyrhapontin, 3,5-dihydroxy-4′-methoxystilbene-3-O-β-D-glucopyranoside, reference compound]	–	–	–	–	0.3 g/L and 0.7 mM
OC[C@H]1O[C@@H](Oc2cc(O)cc(C=Cc3ccc(O)cc3)c2)[C@H](O)[C@@H](O)[C@@H]1O [O-β-D-Glcp-(1→-resveratrol, Resveratrol-3-O-β-D-glucopyranoside, reference compound]	1200 µg/mL and 3100 µM	–	–	–	–
COc1ccc(C=Cc2cc(O)cc(O[C@@H]3O[C@H](CO)[C@@H](O)[C@H](O)[C@H]3O)c2)cc1O [Rhapontin, 4′-methoxy-3,3′,5-stilbenetriol-3-O-β-D-glucopyranoside, reference compound]	300 µg/mL and 700 µM	–	–	–	–
O=C(CCc1ccc(O)cc1)c1c(O)cc(O)cc1O[C@@H]1O[C@H](CO[C@H]2O[C@H](CO)[C@@H](O)[C@H](O)[C@H]2O)[C@@H](O)[C@H](O)[C@H]1O [[6)-O-α-D-Glcp-(1→]1-6-O^2′-β-D-Glcp-(1→-phloretin]	–	Higher than 4750%	Higher than 3450%	> 53.3 g/L and > 89.1 mM	–
COc1ccc(C=Cc2cc(O)cc(O[C@@H]3O[C@H](CO[C@H]4O[C@H](CO)[C@@H](O)[C@H](O)[C@H]4O)[C@@H](O)[C@H](O)[C@H]3O)c2)cc1 [[6)-O-α-D-Glcp-(1→]1-6-O^3-β-D-Glcp-(1→-3,5-dihydroxy-4′-methoxystilbene]	–	Higher than 2700%	Higher than 2000%	> 8.5 g/L and > 15.0 mM	–
O=c1ccc2cc(O[C@@H]3O[C@H](CO[C@H]4O[C@H](CO)[C@@H](O)[C@H](O)[C@H]4O)[C@@H](O)[C@H](O)[C@H]3O)c(O)cc2o1 [[6)-O-α-D-Glcp-(1→]1-6-O^6-β-D-Glcp-(1→-esculetin]	–	Higher than 850%	Higher than 550%	> 12.5 g/L and > 24.9 mM	–
Esculetin-6-O-β-D-glucopyranoside [Esculin, reference compound]	–	–	–	–	1.3 g/L and 3.8 mM

Further lines, with some results ahead:

solubility	% of solubility increase = (A − B)/B × 100 (In g/L)	% of solubility increase = (A − B)/B × 100 (In mM)	A = solubility in water of [6)-O-α-D-Glcp-(1→]1-6-O-β-D-Glcp-(1→-phenolic compound	Molecule	B = solubility in water of O-β-D-Glcp-(1→-phenolic compound)
1100 µg/mL and 2500 µM	–	–	–	O=C(CCc1ccc(O)cc1)c1c(O)cc(O)cc1O[C@@H]1O[C@H](CO)[C@@H](O)[C@H](O)[C@H]1O [Phloridzin, Phloretin-2′-O-β-D-glucopyranoside, reference compound]	–
–	Higher than 5400%	Higher than 3950%	> 16.6 g/L and > 28.5 mM	COc1ccc(C=Cc2cc(O)cc(O[C@@H]3O[C@H](CO[C@H]4O[C@H](CO)[C@@H](O)[C@H](O)[C@H]4O)[C@@H](O)[C@H](O)[C@H]3O)c2)cc1O [[6)-O-α-D-Glcp-(1→]1-6-O^3-β-D-Glcp-(1→-4′-methoxy-3,3′,5-stilbenetriol]	–
–	Higher than 5300%	Higher than 3650%	> 65.0 g/L and > 117.6 mM	OC[C@H]1O[C@H](OC[C@H]2O[C@@H](Oc3cc(O)cc(/C=C/c4ccc(O)cc4)c3)[C@H](O)[C@@H](O)[C@@H]2O)[C@H](O)[C@@H](O)[C@@H]1O [[6)-O-α-D-Glcp-(1→]1-6-O^3-β-D-Glcp-(1→-resveratrol]	–
